According to US8273787B2, “Activated cytotoxic compounds for attachment to targeting molecules for the treatment of mammalian disease conditions” (Onconova Therapeutics, Inc, priority 2006, dated 2012):

Assays:
MES-SA (PARENTAL) = assay: growth inhibition, MES-SA (parental); assay type: cell-based; conditions: Homo sapiens, uterine sarcoma
Description: (§1) Two compounds were selected from our library of cytotoxic molecules for immunoconjugation since they both have IC50 values in the low nanomolar range. Various tumor cell lines (ATCC) were treated for 96 hours in the presence of increasing concentrations of each compound and the total number of viable cells remaining was determined after 96 hours of exposure. The IC50 value was determined to be the amount of drug required to inhibit the growth of each cell line 50% as compared to vehicle treated cells.
(§2) Another extremely important predictive factor is the ability of these compounds to kill cell lines overexpressing multiple drug resistance (MDR) genes. A very high percentage of cancer patient relapses are due to some form of resistance to traditional chemotherapy. Of these patients, the vast majority express one or more of the MDR genes within the ABC transport gene family. Overexpression of these genes increases the efflux of compounds that are recognized by these pumping systems. […] Onconova's benzyl styryl sulfone compounds are not recognized by the MDR-1 gene and therefore provide an advantage over other highly toxic drugs including but not limited to the taxanes, doxorubicin, etoposide, and vinca-alkaloids. […] MES-SA/Dx5, uterine sarcoma, and […], ovarian, are both classical multidrug resistant cell lines that are cross resistant to the taxanes and anthracyclins. Harker, W G, and Sikic, B. I., Multidrug (Pleiotropic) Resistance In Doxorubicin-Selected Variants Of The Human Sarcoma Cell Line MES-SA, Cancer Res. 45(9):4091-6 (1985). MES-SA/Dx5 and Apr. […] Fujimori, A., et al., Mutation At The Catalytic Site Of Topoisomerase I In CEM/C2, A Human Leukemia Cell Line Resistant To Camptothecin, Cancer Res. 55(6): 1339-46 (1995). ON 01500 and ON 013100, for example, are both extremely active against these resistant cell lines.

MES-SA/Dx5 (RESISTANT) = assay: growth inhibition, MES-SA/Dx5 (resistant); assay type: cell-based, Human
Description: as §1, §2

2008/17/4 (RESISTANT) = assay: growth inhibition, 2008/17/4 (resistant); assay type: cell-based
Description: as §1, §2

2008 (PARENTAL) = assay: growth inhibition, 2008 (parental); assay type: cell-based; conditions: ovarian
Description: as §1, §2

CEM = assay: 96 hour growth inhibition, CEM; assay type: cell-based; conditions: Homo sapiens, CCRF-CEM; CEM (PARENTAL)
Description: as §1, §2

CEM/C2 (RESISTANT) = assay: growth inhibition, CEM/C2 (resistant); assay type: cell-based, Human
Description: as §1, §2

Question: With `CC(=O)O[C@H]1C(=O)[C@@]2(C)[C@H]([C@H](OC(=O)c3ccccc3)[C@]3(O)C[C@H](OC(=O)[C@H](O)[C@@H](NC(=O)c4ccccc4)c4ccccc4)C(C)=C1C3(C)C)[C@]1(OC(C)=O)CO[C@@H]1C[C@@H]2O` [PACLITAXEL, reference compound] as the compound, how does the IC50 (MES-SA (PARENTAL)) read?
Answer: The IC50 was 4 nM.

Question: What about the IC50 (MES-SA/Dx5 (RESISTANT); Homo sapiens, MES-SA/Dx5 (RESISTANT), uterine sarcoma, multidrug resistant) of the same compound?
Answer: Its IC50 is 750 nM.

Question: And the RSIST-ANCE (MES-SA/Dx5 (RESISTANT); MES-SA/Dx5 (RESISTANT) versus MES-SA (PARENTAL))?
Answer: The RSIST-ANCE was 188.

Question: And the fold resistant (MES-SA/Dx5 (RESISTANT); MES-SA/Dx5 versus parental)?
Answer: Its fold resistant is 188 fold.

Question: What about the RSIST-ANCE (2008/17/4 (RESISTANT); 2008/17/4 (RESISTANT) versus 2008 (PARENTAL)) of the same compound?
Answer: Its RSIST-ANCE is 667.

Question: And the IC50 (2008/17/4 (RESISTANT); 2008/17/4 (RESISTANT), ovarian, multidrug resistant)?
Answer: Its IC50 is 2000 nM.

Question: What about the fold resistant (2008/17/4 (RESISTANT); 2008/17/4 (printed Apr. 17, 2008) versus parental) of the same compound?
Answer: Its fold resistant is 667 fold.

Question: What about the IC50 (2008 (PARENTAL)) of the same compound?
Answer: The IC50 was 3 nM.

Question: How did the IC50 (CEM) turn out when `CC[C@@]1(O)C(=O)OCc2c1cc1n(c2=O)Cc2cc3ccccc3nc2-1` [CAMPTOTHECIN, reference compound] was run?
Answer: The IC50 was 2 nM.

Question: What about the RSIST-ANCE (CEM/C2 (RESISTANT); CEM/C2 (RESISTANT) versus CEM (PARENTAL)) of the same compound?
Answer: The RSIST-ANCE was 500.

Question: And the IC50 (CEM/C2 (RESISTANT); Homo sapiens, CEM/C2 (RESISTANT), non classical multiple drug resistant)?
Answer: The IC50 was 1000 nM.
